The record followed here is patent publication US12492173B2, “Herbicidal substituted N-tetrazolyl aryl carboxamides” (Bayer Aktiengesellschaft, priority 2019, dated 2025).

Each structure is given as a SMILES string.

What all share (assay type): in vivo
Assay [1] relates to Polygonum convolvulus. As to the kind of experiment: Post-emergence herbicidal action, POLCO. To be noted: post-emergence; for herbicidal action POLCO: dosage 80 g/ha. In a few lines:
(§1)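 Percent herbicidal effect was rated visually about 3 weeks after treatment, relative to untreated plants (0% = like control, 100% = dead). Compounds, formulated as WP or EC, went on as aqueous spray (600–800 l/ha, 0.2% wetting agent) to one-leaf-stage plants 2–3 weeks post-sowing in sandy loam.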

The test system of assay [2] is Cyperus esculentus. As to the kind of experiment: Post-emergence herbicidal action, CYPES. To be noted: post-emergence; for Herbicidal action against CYPES: comparative experiment, 5 g of a.i./ha; for herbicidal action CYPES: dosage 80 g/ha. The arrangement: key: % herbicidal action vs untreated; 100 = plants died, 0 = like control. An outline of the steps: as §1
Assay [3] relates to Pharbitis purpurea. As to the kind of experiment: Pre-emergence herbicidal action, PHBPU. As to conditions: dosage 320 g/ha, scored visually after 3 weeks vs untreated controls (100% = plants have died). In a few lines:
(§2)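 Herbicidal activity is expressed in percent, scored by eye after a 3-week greenhouse period, with 0% matching untreated plants and 100% meaning death. Compounds, as wettable powders or emulsion concentrates, are applied pre-emergence to the covering soil.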

Assay [4] relates to Amaranthus retroflexus. As to the kind of experiment: Pre-emergence herbicidal action, AMARE. To be noted: dosage 320 g/ha, scored visually after 3 weeks vs untreated controls (100% = plants have died). In a few lines: as §2
Assay [5] concerns Lolium multiflorum. As to the kind of experiment: Pre-emergence herbicidal action, LOLMU. As to conditions: for herbicidal activity LOLMU: dosage 320 g/ha, scored visually after 3 weeks vs untreated controls (100% = plants have died). An outline of the steps:
as §2

Assay [6] concerns Lolium multiflorum. As to the kind of experiment: Post-emergence herbicidal action, LOLMU. The arrangement: key: % herbicidal action: 100 = plants died, 0 = like control. To be noted: post-emergence, dosage 80 g/ha. An outline of the steps: as §1

As for `Cn1nnnc1NC(=O)c1ccc(C(F)(F)F)c(C[S+](C)[O-])c1Cl` (racemic) [Example 1-297], the “herbicidal action POLCO” value in assay [1] was determined as 80%. For the same compound, in assay [2], the “Herbicidal action against CYPES” value came out at 60 and the “herbicidal action CYPES” value is on record as 80%. Besides, the “herbicidal activity PHBPU” value in assay [3] stood at 90%. In assay [4], the “herbicidal activity AMARE” value was 100%. The “Herbicidal action against LOLMU” value in assay [5] (comparative experiment, 20 g of a.i./ha) came out at 30. Moreover, the “herbicidal activity LOLMU” value in assay [5] came to 100%. For the same compound, in assay [6], the “herbicidal action LOLMU” value is recorded as 100%.
Regarding `Cn1nnnc1NC(=O)c1ccc(C(F)(F)F)c(CS(C)(=O)=O)c1Cl` [Example 1-298], the “Herbicidal action against POLCO” value in assay [1] (comparative experiment, 5 g of a.i./ha) stood at 60. In addition, the “herbicidal action POLCO” value in assay [1] is reported as 90%. Further, in assay [2], the “Herbicidal action against CYPES” value worked out at 60 and the “herbicidal action CYPES” value turned out to be 90%. The “herbicidal activity PHBPU” value in assay [3] is 90%. Further, the “herbicidal activity AMARE” value in assay [4] is on record as 100%. Moreover, the “herbicidal activity LOLMU” value in assay [5] is recorded as 90%. Moreover, in assay [6], the “herbicidal action LOLMU” value came to 80%.
